Assays:
Type in all cases: in vivo
[1] = tested on: redroot pigweed (Amaranthus retroflexus, AMARE); test: Pre-emerge test, greenhouse herbicide activity screening; conditions: phytotoxicity rating 0-100, 14 days after application
How it was run: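 Visual ratings on a 0-100 scale (0 no damage, 100 all plants dead) were taken at 14 days after treatment. Rates of 15-1000 g ai/ha in acetone, 187 l/ha, were sprayed onto soil one day after planting (pre-emerge) or onto 2-3 leaf plants with 0.25% v/v surfactant (post-emerge).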

[2] = tested on: barnyardgrass (Echinochloa crus-galli, ECHCG); test: as above; conditions: phytotoxicity rating 0-100, 14 days after application
From the text: (§1) A standard greenhouse herbicide activity screening system was used to evaluate the herbicidal efficacy and crop safety of these test compounds. Seven broadleaf weed species including redroot pigweed (Amaranthus retroflexus, AMARE, velvetleaf (Abutilon theophrasti, ABUTH), sicklepod (Cassia obtusifolia, CASOB), ivyleaf morningglory (Ipomoea hederacea, IPOHE), lambsquarters (Chenopodium album, CHEAL), common ragweed (Ambrosia artemisizfolia L., AMBEL), and cocklebur (Xanthium strumarium, XANST) were used as test species. Four grass weed species including green foxtail (Setaria viridis, SETVI), barnyardgrass (Echinochloa crus-galli, ECHCG), johnsongrass (Sorghum halepense, SORHA), and large crabgrass (Digitaria sanguinalis, DIGSA) were also used. In addition, three crop species, field corn (Zea mays L., var. Dekalb 535, CORN), soybean (Glycine max L., var. Pella 86, SOY), and is upland rice (Oryza sp., var. Tebonnet, RICE) were included.
(§2) All plants were grown in 10 cm square plastic pots which were filled with a sandy loam soil mix. For pre-emerge tests, seeds were planted one day prior to application of the test compounds. For post-emerge tests, seeds were planted 8-21 days prior to the test to allow emergence and good foliage development prior to application of the test substances. At the time of the post-emerge application, plants of all species were usually at the 2-3 leaf stage of development.
(§3) All test compounds Were dissolved in acetone and applied to the test units in a volume of 187 l /ha. Test materials were applied at rates ranging from 15 g ai/ha to 1000 g ai/ha using a track sprayer equipped with a TJ8001E even flow flat fan spray nozzle. Plants were arranged on a shelf so that the top of the canopy (post-emerge) or top of the soil surface (pre-emerge) was 40-45 cm below the nozzle. Pressurized air was used to force the test solution through the nozzle as it was mechanically advanced (via electrically driven chain drive) over the top of all test plants/pots. This application simulates a typical commercial field herbicide application.
(§4) In the post-emerge test, a commercial non-ionic surfactant was also included (0.25% v/v) to enhance wetting of the leaf surfaces of target plants. Immediately after application, test units of the pre-emerge applications were watered at the soil surface to incorporate the test materials. Subsequently, these test units were bottom-watered. Post-emerge test units were always bottom-watered.
(§5) At 14 days after application of the test materials, phytotoxicity ratings were recorded. A rating scale of 0-100 was used as previously described in Research Methods in Weed Science, 2nd edition, B. Truelove, Ed., Southern Weed Science Society, Auburn University, Auburn, Ala. 1977. Briefly, “0” corresponds to no damage and “100” corresponds to complete death of all plants in the test unit. This scale was used both to determine efficacy against weed species and damage to crop species. Herbicide activity data for various compounds of this invention, which are shown by compound No. in Tables 1-8, are shown in Tables 11 and 12.

[3] = tested on: green foxtail (Setaria viridis, SETVI); test: as above; conditions: phytotoxicity rating 0-100, 14 days after application
From the text: as §1, §2, §3, §4, §5

[4] = tested on: ivyleaf morningglory (Ipomoea hederacea, IPOHE); test: as above; conditions: phytotoxicity rating 0-100, 14 days after application
From the text: as §1, §2, §3, §4, §5

[5] = tested on: lambsquarters (Chenopodium album, CHEAL); test: as above; conditions: phytotoxicity rating 0-100, 14 days after application
From the text: as §1, §2, §3, §4, §5

[6] = tested on: large crabgrass (Digitaria sanguinalis, DIGSA); test: as above; conditions: phytotoxicity rating 0-100, 14 days after application
From the text: as §1, §2, §3, §4, §5

[7] = tested on: sicklepod (Cassia obtusifolia, CASOB); test: as above; conditions: phytotoxicity rating 0-100, 14 days after application
From the text: as §1, §2, §3, §4, §5

[8] = tested on: velvetleaf (Abutilon theophrasti, ABUTH); test: as above; conditions: phytotoxicity rating 0-100, 14 days after application
From the text: as §1, §2, §3, §4, §5

[9] = tested on: field corn (Zea mays L., var. Dekalb 535, CORN); test: Pre-emerge test, crop safety; conditions: crop damage rating 0-100, 14 days after application
How it was run: (§6)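 Herbicidal damage is scored 0 (none) to 100 (complete plant death) two weeks after a simulated field spray. Rates span 15–1000 g ai/ha, delivered in acetone at 187 l/ha. For post-emergence treatments, plants have 2–3 leaves and the spray carries 0.25% v/v non-ionic surfactant.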

[10] = tested on: upland rice (Oryza sp., var. Tebonnet, RICE); test: Pre-emerge test, crop safety; conditions: crop damage rating 0-100, 14 days after application
How it was run: as §6

[11] = tested on: barnyardgrass (Echinochloa crus-galli, ECHCG); test: Post-emerge test, greenhouse herbicide activity screening; conditions: post-emerge, 14 days after application, rating scale 0-100
From the text: as §1, §2, §3, §4, §5

[12] = tested on: green foxtail (Setaria viridis, SETVI); test: as above; conditions: post-emerge, 14 days after application, rating scale 0-100
From the text: as §1, §2, §3, §4, §5

[13] = tested on: ivyleaf morningglory (Ipomoea hederacea, IPOHE); test: as above; conditions: post-emerge, 14 days after application, rating scale 0-100
From the text: as §1, §2, §3, §4, §5

[14] = tested on: lambsquarters (Chenopodium album, CHEAL); test: as above; conditions: post-emerge, 14 days after application, rating scale 0-100
From the text: as §1, §2, §3, §4, §5

[15] = tested on: large crabgrass (Digitaria sanguinalis, DIGSA); test: as above; conditions: post-emerge, 14 days after application, rating scale 0-100
From the text: as §1, §2, §3, §4, §5

[16] = tested on: redroot pigweed (Amaranthus retroflexus, AMARE); test: as above; conditions: post-emerge, 14 days after application
From the text: as §1, §2, §3, §4, §5

[17] = tested on: sicklepod (Cassia obtusifolia, CASOB); test: as above; conditions: post-emerge, 14 days after application, rating scale 0-100
From the text: as §1, §2, §3, §4, §5

[18] = tested on: velvetleaf (Abutilon theophrasti, ABUTH); test: as above; conditions: post-emerge, 14 days after application, rating scale 0-100
From the text: as §1, §2, §3, §4, §5

[19] = tested on: field corn (Zea mays L., var. Dekalb 535, CORN); test: Post-emerge test, crop safety; conditions: post-emerge, 14 days after application, rating scale 0-100
How it was run: (§7)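 Compounds in acetone were track-sprayed at 15-1000 g ai/ha (187 l/ha) on sandy loam pots: pre-emerge one day after seeding, post-emerge at 2-3 leaf stage with 0.25% v/v non-ionic surfactant. Phytotoxicity was rated 14 days later on a 0 (no damage) to 100 (complete death) scale.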

[20] = tested on: upland rice (Oryza sp., var. Tebonnet, RICE); test: Post-emerge test, crop safety; conditions: post-emerge, 14 days after application, rating scale 0-100
How it was run: as §7

[21] = 63 g ai/ha, rating scale 0-100 (0 no damage, 100 complete death)
[22] = 250 g ai/ha, rating scale 0-100

SMILES | Pre-emerge Herbicidal Activity AMARE ([1]; 63 g ai/ha) | Pre-emerge Herbicidal Activity AMARE ([1]; 250 g ai/ha) | Pre-emerge Herbicidal Activity ECHCG ([2]; 63 g ai/ha) | Pre-emerge Herbicidal Activity ECHCG ([2]; 250 g ai/ha) | Pre-emerge Herbicidal Activity SETVI ([3]; 63 g ai/ha) | Pre-emerge Herbicidal Activity SETVI ([3]; 250 g ai/ha) | Pre-emerge Herbicidal Activity IPOHE ([4]; 63 g ai/ha) | Pre-emerge Herbicidal Activity IPOHE ([4]; 250 g ai/ha) | Pre-emerge Herbicidal Activity CHEAL ([5]; 63 g ai/ha) | Pre-emerge Herbicidal Activity CHEAL ([5]; 250 g ai/ha) | Pre-emerge Herbicidal Activity DIGSA ([6]; 63 g ai/ha) | Pre-emerge Herbicidal Activity DIGSA ([6]; 250 g ai/ha) | Pre-emerge Herbicidal Activity CASOB ([7]; 63 g ai/ha) | Pre-emerge Herbicidal Activity CASOB ([7]; 250 g ai/ha) | Pre-emerge Herbicidal Activity ABUTH ([8]; 63 g ai/ha) | Pre-emerge Herbicidal Activity ABUTH ([8]; 250 g ai/ha) | Pre-emerge Herbicidal Activity CORN ([9]; 63 g ai/ha) | Pre-emerge Herbicidal Activity CORN ([9]; 250 g ai/ha) | Pre-emerge Herbicidal Activity RICE ([10]; 63 g ai/ha) | Pre-emerge Herbicidal Activity RICE ([10]; 250 g ai/ha) | further results
COc1ccc(COC(=O)Nc2c(OC)c(Cl)cc(F)c2-n2c(=O)cc(C(F)(F)F)n(C)c2=O)cc1 [4-40] | 100 | 100 | 60 | 85 | 100 | 100 | 30 | 90 | 100 | 100 | 100 | 100 | 60 | 90 | 100 | 100 | 0 | 75 | 30 | 70 | phytotoxicity rating ECHCG ([11]; 63 g ai/ha): 50; phytotoxicity rating ECHCG ([11]; 250 g ai/ha): 90; phytotoxicity rating SETVI ([12]; 63 g ai/ha): 80; phytotoxicity rating SETVI ([12]; 250 g ai/ha): 90; phytotoxicity rating IPOHE ([13]; 63 g ai/ha): 100; phytotoxicity rating IPOHE ([13]; 250 g ai/ha): 100; phytotoxicity rating CHEAL ([14]; 63 g ai/ha): 100; phytotoxicity rating CHEAL ([14]; 250 g ai/ha): 100; phytotoxicity rating DIGSA ([15]; 63 g ai/ha): 40; phytotoxicity rating DIGSA ([15]; 250 g ai/ha): 90; phytotoxicity rating AMARE [16, 21]: 100; phytotoxicity rating AMARE [16, 22]: 100; phytotoxicity rating CASOB ([17]; 63 g ai/ha): 100; phytotoxicity rating CASOB ([17]; 250 g ai/ha): 100; phytotoxicity rating ABUTH ([18]; 63 g ai/ha): 100; phytotoxicity rating ABUTH ([18]; 250 g ai/ha): 100; phytotoxicity rating CORN (crop damage) ([19]; 63 g ai/ha): 30; phytotoxicity rating CORN (crop damage) ([19]; 250 g ai/ha): 70; phytotoxicity rating RICE (crop damage) ([20]; 63 g ai/ha): 40; phytotoxicity rating RICE (crop damage) ([20]; 250 g ai/ha): 60
COc1c(Cl)cc(F)c(-n2c(=O)cc(C(F)(F)F)n(C)c2=O)c1NC(=O)OCc1ccc2c(c1)OCO2 [4-41] | 100 | 100 | 80 | 90 | 100 | 100 | 100 | 100 | 100 | 100 | 100 | 100 | 100 | 100 | 100 | 100 | 15 | 65 | 40 | 80 | phytotoxicity rating ECHCG ([11]; 63 g ai/ha): 80; phytotoxicity rating ECHCG ([11]; 250 g ai/ha): 90; phytotoxicity rating SETVI ([12]; 63 g ai/ha): 95; phytotoxicity rating SETVI ([12]; 250 g ai/ha): 95; phytotoxicity rating IPOHE ([13]; 63 g ai/ha): 100; phytotoxicity rating IPOHE ([13]; 250 g ai/ha): 100; phytotoxicity rating CHEAL ([14]; 63 g ai/ha): 100; phytotoxicity rating CHEAL ([14]; 250 g ai/ha): 100; phytotoxicity rating DIGSA ([15]; 63 g ai/ha): 90; phytotoxicity rating DIGSA ([15]; 250 g ai/ha): 100; phytotoxicity rating AMARE [16, 21]: 100; phytotoxicity rating AMARE [16, 22]: 100; phytotoxicity rating CASOB ([17]; 63 g ai/ha): 100; phytotoxicity rating CASOB ([17]; 250 g ai/ha): 100; phytotoxicity rating ABUTH ([18]; 63 g ai/ha): 100; phytotoxicity rating ABUTH ([18]; 250 g ai/ha): 100; phytotoxicity rating CORN (crop damage) ([19]; 63 g ai/ha): 75; phytotoxicity rating CORN (crop damage) ([19]; 250 g ai/ha): 90; phytotoxicity rating RICE (crop damage) ([20]; 63 g ai/ha): 50; phytotoxicity rating RICE (crop damage) ([20]; 250 g ai/ha): 85

From patent US6355799B1, “Substituted benzene compounds, process for their preparation, and herbicidal and defoliant compositions containing them” (ISK Americas Incorporated, priority 1997, dated 2002)
